Measured values taken from patent publication US4587248A, “4-alkyl-thiophenyl-ethanolamines, having an activity the cerebral circulation, the blood platelet-aggregation and the lipenia” (priority 1981, dated 1986).
Like-named read-outs stand apart in the source and are kept apart here.

Key:
[1] = system: isolated intestines of rats; experiment: spasmolytic activity in vitro on isolated intestines of rats
[2] = system: isolated intestines of Guinea pigs; experiment: spasmolytic activity in vitro on isolated intestines of Guinea pigs
[3] = system: contractions caused by norepinephrine on the deferent duct; experiment: contractions caused by norepinephrine on the deferent duct (Barnett et al)
isolated rat aorta = experiment: contractions of isolated rat aorta (Godfraind and Kaba 1969)
[4] = system: depolarized aorta of rats; experiment: contraction-promoting effect of bivalent calcium ions on the depolarized aorta of rats (Godfraind and Kaba 1972)
mice = details: for Slope (fiducial limits): LD50, mice; for LD50, fiducial limits / LD50, fiducial limits (micromol/kg equivalent): mice; for LD50, fiducial limits (micromol/kg equivalent): in brackets
in vivo = details: mouse, ip
rats = details: for LD50, fiducial limits / LD50, fiducial limits (micromol/kg equivalent): rats; for Slope (fiducial limits): LD50, rats; for LD50, fiducial limits (micromol/kg equivalent): in brackets

SMILES: CC(C)Sc1ccc([C@@H](O)[C@@H](C)N2CCN(C(=O)C=Cc3ccccc3)CC2)cc1 (relative stereo) [1-(4-isopropylthiophenyl)-2-(4-cinnamoyl-piperazine-1-yl)-1-propanol]
- spasmolytic activity [1]: considerable spasmolytic activity
- spasmolytic activity [2]: considerable spasmolytic activity
- inhibition of contractions caused by norepinephrine on the deferent duct [3]: inhibit the contractions caused by norepinephrine
- inhibition of contractions of isolated rat aorta (isolated rat aorta): inhibit the contractions of isolated rat aorta
- inhibition of the contraction-promoting effect of bivalent calcium ions on the depolarized aorta [4]: has been inhibited

SMILES: CC(C)Sc1ccc([C@@H](O)[C@H](C)N2CCN(C(=O)C=Cc3ccccc3)CC2)cc1 (relative stereo) [1-(4-isopropylthiophenyl)-2-(4-cinnamoyl-piperazine-1-yl)-1-propanol]
- spasmolytic activity [1]: considerable spasmolytic activity
- spasmolytic activity [2]: considerable spasmolytic activity
- inhibition of contractions caused by norepinephrine on the deferent duct [3]: inhibit the contractions caused by norepinephrine
- inhibition of contractions of isolated rat aorta (isolated rat aorta): inhibit the contractions of isolated rat aorta
- inhibition of the contraction-promoting effect of bivalent calcium ions on the depolarized aorta [4]: has been inhibited
- Slope (fiducial limits) (mice; intraperitoneally): 1.36 (1.14-1.47)
- Slope (fiducial limits) (mice; orally): 1.25 (1.10-1.42)
- LD50, fiducial limits (mice; intraperitoneally (TABLE 2)): 782-1082 mg/kg b.w.
- LD50, fiducial limits (micromol/kg equivalent) (mice; intraperitoneally (TABLE 2)): 1842 to 2548 µmol/kg
- LD50, fiducial limits (mice; orally (TABLE 2)): 3166-4208 mg/kg b.w.
- LD50, fiducial limits (micromol/kg equivalent) (mice; orally (TABLE 2)): 6867 to 9127 µmol/kg

SMILES: CC(C)Sc1ccc([C@@H](O)[C@H](C)N2CCN(C(=O)C=Cc3ccccc3)CC2)cc1 (relative stereo) [Compound 1]
- LD50 (in vivo): 920 mg/kg

SMILES: CC(C)Sc1ccc([C@@H](O)[C@@H](C)N2CCN(C(=O)C=Cc3ccccc3)CC2)cc1 (relative stereo) [Compound 2]
- LD50 (in vivo): > 4000 mg/kg

SMILES: COc1cc(C=CC(=O)N2CCN(C(C)C(O)c3ccc(SC(C)C)cc3)CC2)cc(OC)c1OC (centres unmarked) [Compound 3]
- LD50 (in vivo): > 400 mg/kg

SMILES: CC(C)Sc1ccc(C(O)C(C)N2CCN(CC=Cc3ccccc3)CC2)cc1 (centres unmarked) [Compound 4]
- LD50 (in vivo): 300 mg/kg

SMILES: COc1cc(C=CCN2CCN(C(C)C(O)c3ccc(SC(C)C)cc3)CC2)cc(OC)c1OC (centres unmarked) [Compound 5]
- LD50 (in vivo): 75 mg/kg

SMILES: CC(C)Sc1ccc(C(O)C(C)Nc2ccccc2)cc1 (centres unmarked) [Compound 6]
- LD50 (in vivo): 400 mg/kg

SMILES: CC(C)Sc1ccc(C(O)C(C)Nc2ccccc2C2CCCCC2)cc1 (centres unmarked) [Compound 7]
- LD50 (in vivo): > 400 mg/kg

SMILES: CC(C)Sc1ccc(C(O)C(C)Nc2cccc(C3CCCCC3)c2)cc1 (centres unmarked) [Compound 8]
- LD50 (in vivo): 500 mg/kg

SMILES: CC(C)Sc1ccc(C(O)C(C)Nc2ccc(C3CCCCC3)cc2)cc1 (centres unmarked) [Compound 9]
- LD50 (in vivo): > 400 mg/kg

SMILES: CC(C)Sc1ccc(C(O)C(C)NC2CCCCC2c2ccccc2)cc1 (centres unmarked) [Compound 11]
- LD50 (in vivo): > 400 mg/kg

SMILES: CC(C)Sc1ccc(C(O)C(C)NC2CCC(c3ccccc3)CC2)cc1 (centres unmarked) [Compound 13]
- LD50 (in vivo): 150 mg/kg

SMILES: Fc1ccc(C(c2ccc(F)cc2)N2CCN(C/C=C/c3ccccc3)CC2)cc1 [Flunarizine]
- LD50, fiducial limits (mice; intraperitoneally (TABLE 2)): 325-386 mg/kg b.w.
- LD50, fiducial limits (mice; orally (TABLE 2)): 498-687 mg/kg b.w.
- LD50, fiducial limits (rats; intraperitoneally (TABLE 2)): 332-543 mg/kg b.w.
- LD50, fiducial limits (rats; orally (TABLE 2)): 1714-2773 mg/kg b.w.

SMILES: CCCCCCCCNC(C)C(O)c1ccc(SC(C)C)cc1 (centres unmarked) [Suloctidil]
- Slope (fiducial limits) (mice; intraperitoneally): 1.55 (1.33-1.82)
- Slope (fiducial limits) (mice; orally): 1.24 (1.18-1.30)
- LD50, fiducial limits (mice; intraperitoneally (TABLE 2)): 26.8-39.4 mg/kg b.w.
- LD50, fiducial limits (micromol/kg equivalent) (mice; intraperitoneally (TABLE 2)): 70.4 to 116.7 µmol/kg
- LD50, fiducial limits (mice; orally (TABLE 2)): 2016-2511 mg/kg b.w.
- LD50, fiducial limits (micromol/kg equivalent) (mice; orally (TABLE 2)): 5972 to 7439 µmol/kg
- Slope (fiducial limits) (rats; intraperitoneally): 1.86 (1.42-2.44)
- Slope (fiducial limits) (rats; orally): 1.18 (1.13-1.22)
- LD50, fiducial limits (rats; intraperitoneally (TABLE 2)): 32-69 mg/kg b.w.
- LD50, fiducial limits (micromol/kg equivalent) (rats; intraperitoneally (TABLE 2)): 94.8 to 204.4 µmol/kg
- LD50, fiducial limits (rats; orally (TABLE 2)): 1603-1976 mg/kg b.w.
- LD50, fiducial limits (micromol/kg equivalent) (rats; orally (TABLE 2)): 4749 to 5854 µmol/kg
- LD50 (in vivo): 32.5 mg/kg
